# Experiments:
# [1] = target: T1, human NT-3 binding to human TrkC-hFc (Homo sapiens, UniProt P20783); test: BIACORE, NT-3 binding to TrkC-hFc surface in presence of antibody; conditions: 20 nM NT-3 + 500 nM sample; normalized to IgG1 control
# T1 sequence (P20783 139-257): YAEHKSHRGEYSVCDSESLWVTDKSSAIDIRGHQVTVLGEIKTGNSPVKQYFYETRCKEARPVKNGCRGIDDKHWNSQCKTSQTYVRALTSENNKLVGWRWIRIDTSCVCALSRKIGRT
# Description: (§1) Human TrkA-hFc (9300 RU), human TrkB-hFc (6000 RU), human TrkC-hFc (9100 RU) and human p75-hFc (7500 RU) were covalently coupled to BIACORE® CM5 chip surfaces by amine-coupling procedure. […] The binding mixture was first incubated at room temperature to reach equilibrium (about 1 hr) and then was injected over the above TrkA-hFc, TrkB-hFc, TrkC-hFc and p75-hFc surfaces. The level of human NT-3 binding in each sample was measured. The binding RU from each sample mixture was normalized according to the RU value from the negative control sample (i.e., 20 nM human NT-3 with 500 nM AVASTIN®) and presented as % binding to Trk surfaces (Table 9).
# [2] = target: T2, human NT-3 binding to human p75-hFc (Homo sapiens, UniProt P20783); test: BIACORE, NT-3 binding to p75-hFc surface in presence of antibody; conditions: 20 nM NT-3 + 500 nM sample; normalized to IgG1 control
# T2 sequence (P20783 139-257): T1 sequence (P20783 139-257)
# Description: as §1
# C57BL/6 mice = test: Post-operative incision pain model, mechanical allodynia in von Frey test; format: in vivo, mouse; conditions: Table 17
# Description: Thermal hyperalgesia was studied in the Hargreaves' test and mechanical allodynia was tested in the von Frey test. In this latter test, mice were tested after being acclimated for 2-3 hours for 4 days in an apparatus with a wire mesh floor. The test was performed by applying, in ascending order, a series of von Frey hairs through the wire mesh onto the plantar surface of the hind paw with the incision. A response was considered positive if the paw was raised from the platform in response to application of the filament. Starting from the thinnest hair, each von Frey filament was applied up to five times until a response was observed.
# C57BL/6 male mice = test: Seltzer model of neuropathic pain, Hargreaves' test; format: in vivo, mouse
# Source text: Neuropathic pain. The mouse Seltzer model of neuropathic pain (Malmberg et al. (1998) Pain 76:215-222) was used with C57BL/6 male mice, in which a partial nerve injury was produced by tying a tight ligature with a 7-0 silk suture around approximately ⅓ to ½ the diameter of the sciatic nerve of one single thigh per mouse. Post-surgery, the mice were allowed to recover for at least two days and then they were studied for several weeks post-surgery for thermal hyperalgesia in the Hargreaves' test. Controls were sham-operated mice in which the sciatic nerve was exposed and elevated but not tied. Following surgery, the mice were tested at day […] and at day 7 post-surgery to confirm that the thermal hyperalgesia had developed.
# Following the Seltzer surgery, mice were tested at days 5 and 7 post-surgery to confirm that the thermal hyperalgesia had developed.
substance,measurement,setting,value
"IgG1 Control: negative binding control, IgG1 control (AVASTIN®; Genentech, CA)",% binding to TrkC-hFc surface,[1],100%
same,% binding to p75-hFc surface,[2],100%
same,Paw Withdrawal Threshold,"C57BL/6 mice; 25 mg/kg i.p. on day 1 post-surgery, Baseline",1.314 ± 0.137 g
same,Paw Withdrawal Threshold,"C57BL/6 mice; 25 mg/kg i.p., 5 hr after treatment",0.011 ± 0.002 g
same,Paw Withdrawal Threshold,"C57BL/6 mice; 25 mg/kg i.p., 22 hr after treatment",0.029 ± 0.004 g
same,Paw Withdrawal Threshold,"C57BL/6 mice; 25 mg/kg i.p., 45 hr after treatment",0.190 ± 0.135 g
same,Paw Withdrawal Threshold,"C57BL/6 mice; 25 mg/kg i.p., 70 hr after treatment",0.194 ± 0.034 g
same,Paw Withdrawal Threshold,"C57BL/6 mice; 25 mg/kg i.p., Day 1 (post-surgery, before injection)",0.011 ± 0.002 g
same,pain relief,"C57BL/6 male mice; 50 mg/kg s.c. or i.p. at day 7 post-surgery, p<0.001-0.05",no effect
same,mean percent change from Hargreaves baseline,"C57BL/6 male mice; Table 23, Seltzer, 100 mg/kg s.c. at day 7, day 0 after surgery",0.0 ± 0.0%
same,mean percent change from Hargreaves baseline,"C57BL/6 male mice; Table 23, Seltzer, 100 mg/kg s.c. at day 7, day 4",−46.9 ± 6.5%
same,mean percent change from Hargreaves baseline,"C57BL/6 male mice; Table 23, Seltzer, 100 mg/kg s.c. at day 7, day 7",−55.3 ± 6.4%
same,mean percent change from Hargreaves baseline,"C57BL/6 male mice; Table 23, Seltzer, 100 mg/kg s.c. at day 7, day 8",−55.6 ± 4.3%
same,mean percent change from Hargreaves baseline,"C57BL/6 male mice; Table 23, Seltzer, 100 mg/kg s.c. at day 7, day 11",−57.3 ± 5.1%
same,mean percent change from Hargreaves baseline,"C57BL/6 male mice; Table 23, Seltzer, 100 mg/kg s.c. at day 7, day 13",−59.7 ± 6.5%
same,mean percent change from Hargreaves baseline,"C57BL/6 male mice; Table 23, Seltzer, 100 mg/kg s.c. at day 7, day 16",−51.2 ± 4.0%
same,mean percent change from Hargreaves baseline,"C57BL/6 male mice; Table 23, Seltzer, 100 mg/kg s.c. at day 7, day 18",−57.7 ± 4.6%
same,mean percent change from Hargreaves baseline,"C57BL/6 male mice; Table 23, Seltzer, 100 mg/kg s.c. at day 7, day 20",−53.2 ± 4.9%
same,mean percent change from Hargreaves baseline,"C57BL/6 male mice; Table 23, Seltzer, 100 mg/kg s.c. at day 7, day 24",−54.9 ± 4.1%
same,mean percent change from Hargreaves baseline,"C57BL/6 male mice; Table 23, Seltzer, 100 mg/kg s.c. at day 7, day 28",−51.81 ± 4.1%
same,mean percent change from Hargreaves baseline,"C57BL/6 male mice; Table 23, Seltzer, 100 mg/kg s.c. at day 7, day 31",−49.7 ± 2.5%
same,mean percent change from Hargreaves baseline,"C57BL/6 male mice; Table 23, Sham-operated, 100 mg/kg s.c. at day 7, day 0 after surgery",0.0 ± 0.0%
same,mean percent change from Hargreaves baseline,"C57BL/6 male mice; Table 23, Sham, 100 mg/kg s.c. at day 7, day 4",−7.2 ± 3.7%
same,mean percent change from Hargreaves baseline,"C57BL/6 male mice; Table 23, Sham, 100 mg/kg s.c. at day 7, day 7",8.7 ± 13.2%
same,mean percent change from Hargreaves baseline,"C57BL/6 male mice; Table 23, Sham, 100 mg/kg s.c. at day 7, day 8",−9.4 ± 4.1%
same,mean percent change from Hargreaves baseline,"C57BL/6 male mice; Table 23, Sham, 100 mg/kg s.c. at day 7, day 11",14.7 ± 11.4%
same,mean percent change from Hargreaves baseline,"C57BL/6 male mice; Table 23, Sham, 100 mg/kg s.c. at day 7, day 13",−6.9 ± 3.3%
same,mean percent change from Hargreaves baseline,"C57BL/6 male mice; Table 23, Sham, 100 mg/kg s.c. at day 7, day 16",2.3 ± 3.0%
same,mean percent change from Hargreaves baseline,"C57BL/6 male mice; Table 23, Sham, 100 mg/kg s.c. at day 7, day 18",0.2 ± 2.8%
same,mean percent change from Hargreaves baseline,"C57BL/6 male mice; Table 23, Sham, 100 mg/kg s.c. at day 7, day 20",3.6 ± 2.4%
same,mean percent change from Hargreaves baseline,"C57BL/6 male mice; Table 23, Sham, 100 mg/kg s.c. at day 7, day 24",1.5 ± 2.9%
same,mean percent change from Hargreaves baseline,"C57BL/6 male mice; Table 23, Sham, 100 mg/kg s.c. at day 7, day 28",0.7 ± 2.5%
same,mean percent change from Hargreaves baseline,"C57BL/6 male mice; Table 23, Sham, 100 mg/kg s.c. at day 7, day 31",1.1 ± 2.3%
same,mean percent change from Hargreaves baseline,"C57BL/6 male mice; Table 24, 100 mg/kg s.c. injected Day 7 post-surgery, Baseline",0.0 ± 0.0%
same,mean percent change from Hargreaves baseline,"C57BL/6 male mice; Table 24, 100 mg/kg s.c. injected Day 14 post-surgery, Baseline",0.0 ± 0.0%
same,mean percent change from Hargreaves baseline,"C57BL/6 male mice; Table 24, 100 mg/kg s.c. injected Day 21 post-surgery, Baseline",0.0 ± 0.0%
same,mean percent change from Hargreaves baseline,"C57BL/6 male mice; Table 24, injected Day 7, Day 5 after surgery",−53.5 ± 5.9%
same,mean percent change from Hargreaves baseline,"C57BL/6 male mice; Table 24, injected Day 7, Day 8",−56.7 ± 3.8%
same,mean percent change from Hargreaves baseline,"C57BL/6 male mice; Table 24, injected Day 7, Day 10",−64.3 ± 2.6%
same,mean percent change from Hargreaves baseline,"C57BL/6 male mice; Table 24, injected Day 7, Day 14",−66.9 ± 5.1%
same,mean percent change from Hargreaves baseline,"C57BL/6 male mice; Table 24, injected Day 7, Day 15",−60.6 ± 4.0%
same,mean percent change from Hargreaves baseline,"C57BL/6 male mice; Table 24, injected Day 7, Day 17",−58.9 ± 3.5%
same,mean percent change from Hargreaves baseline,"C57BL/6 male mice; Table 24, injected Day 7, Day 21",−54.1 ± 9.6%
same,mean percent change from Hargreaves baseline,"C57BL/6 male mice; Table 24, injected Day 7, Day 22",−56.3 ± 4.9%
same,mean percent change from Hargreaves baseline,"C57BL/6 male mice; Table 24, injected Day 7, Day 24",−55.6 ± 5.1%
same,mean percent change from Hargreaves baseline,"C57BL/6 male mice; Table 24, injected Day 7, Day 28",−54.1 ± 3.5%
same,mean percent change from Hargreaves baseline,"C57BL/6 male mice; Table 24, injected Day 7, Day 32",−41.9 ± 8.3%

# Source: patent US8613927B2, “High affinity human antibodies to human nerve growth factor” (Regeneron Pharmaceuticals, Inc., priority 2007, dated 2013)
